Key:
p38 and NF-kB = experiment: Analysis of p38 and NF-kB activation on lung DCs; format: cell-based, murine
Method: P38 and NF-kB were activated on lung DCs by exposure for 20 minutes at 37° C. to Aspergillus conidia and/or 100 ng/ml TA1. Blots of cell lysates were incubated with rabbit polyclonal Abs recognizing either the unphosphorylated form of p38 MAPK, or the double-phosphorylated (Thr-180/Tyr-182) p38 MAPK, or Abs specific for the Rel A, 65 kDa DNA binding subunit of human NF-kB followed by horseradish peroxidase-conjugated goat anti-rabbit IgG, as per manufacturer's instructions. Blots were developed with an Enhanced Chemiluminescence detection kit. Bands were visualized after exposure of the blots to a Kodak RX film. To ensure similar protein loading in each lane, the phospho blots were stripped and the membranes were reprobed with Abs against p38 and NF-kB.

[1] = tested on: human MDC and PDC subsets; experiment: Activation of human MDC and PDC subsets: phagocytosis, phenotype, cytokine release; format: cell-based; details: in response to conidia
Method: Blood CD 11c^+ myeloid DCs (MDCs) were generated from CD 14^+ mononuclear cells by magnetic cell sorting and cultured for 5 days in Iscove's modified medium, containing 10% fetal bovine serum, 50 micromolar 2-mercaptoethanol, sodium pyruvate (1 mM), 2 mM L-glutamine, HEPES (10 mM), and 50 micrograms/ml gentamycin in the presence of 50 ng/ml rHuman GM-CSF and 200 U/ml rHuman IL-4. Immature MDCs were cultured for 24 hours with 1000 ng/ml trimeric human CD40 ligand-leucine-zipper fusion protein to obtain mature DCs. CD 123^+ plasmacytoid DCs (PDCs) were isolated using the BDCA-4 isolation kit. Purity of CD 123^+ cells was >96%. For mature PDCs, immature DCs were cultured with the trimeric human CD40 ligand as above and 10 ng/ml IL-3. […] The expression of HLA Class II, CD80 and CD86 was high in both immature and mature DCs. Murine lung CD 11c^+ DCs (between 5 to 7% positive for CD8alpha and between 30 to 35% positive for Gr-1) were isolated by magnetic cell sorting. For phagocytosis, DCs were pre-exposed to 100 ng/ml TA1 for 60 minutes and subsequently incubated at 37° C. with Aspergillus conidia for an additional 60 minutes. The percentage of internalization was calculated and photographs were taken. In assessing functional maturation and cytokine determination, purified DCs were resuspended in Iscove's medium (with no serum but with polymixin B, to avoid non-specific activation by serum components and endotoxin) and pulsed with 100 ng/ml TA1 for 24 hours either alone or together with TLR ligands or unopsonized Aspergillus conidia. Cell surface phenotype was assessed by reacting samples with FITC- or PE-conjugated rat anti-mouse antibodies. Unrelated hisotype matched antibodies were used as control. The levels of TNF-alpha, IL-10, IL-12 p70, IFN-alpha and IL-8 in culture supernatants were determined by Kit ELISAs. The detection limits (pg/ml) of the assays were <3 (human) and <32 (murine) for TNF-alpha, <12 (murine) and <5 (human) for IL-10, <16 (murine) and <3 (human) for IL-12 p70 and <25 (human) IL-8. For human IFN-alpha <3 ng/ml. For enumeration of cytokine-producing cells, an ELISPOT assay was used on purified CD4^+ T cells and DCs from lungs.

murine DCs = experiment: RT-PCR of TLR expression on DCs; format: cell-based
Method: Synthesis and PCR of cDNA were performed with forward and reverse PCR primers and the cycles used for murine and human TLRs and HPRT. The synthesized PCR products were separated by electrophoresis on 2% agarose gel and visualized by ethidium bromide staining.

A. fumigatus = experiment: BMT mice with invasive aspergillosis: survival, fungal growth in lungs (chitin assay), lung histology; format: in vivo; details: G-CSF 250 microgram/kg intravenously
Text: For infection with A. fumigatus, mice were intranasally injected for 3 consecutive days with a suspension of 2×10^7 conidia/20 microliter saline. For the quantification of fungal growth in the lungs, the chitin assay was used. The chitin content was expressed as micrograms of glucosamine per organ. The glucosamine content of lungs from uninfected mice was used as a negative control ranging between 0.80 and 2.25 microgram glucosamine/organ. For histological analysis, lungs were excised and immediately fixed in formalin. Sections (3 to 4 micron) of paraffin-embedded tissues were stained with the periodic acid-Schiff procedure. Thymosin alpha 1 (TA1) and the scrambled polypeptide are as purified sterile lyophilized acetylated polypeptides with endotoxin levels less than 0.03 pg/ml, by a standard limulus lysate assay. The sequences were as follows: Ac-[…]O (Thymosin alpha 1, SEQ ID NO.: 1) and Ac-[…]OH ([…]). Their lyophilized powders were reconstituted in sterile water.
The treatments were as follows; in BMT-mice, TA1, at different doses administered intraperitoneally, sthymosin alpha 1, 400 microgram/kg administered intraperitoneally or human recombinant G-CSF 250 microgram/kg administered intravenously, were given daily beginning the day of the BM infusion, in concomitance with the infection and continuing for an additional 3 days. Amphotericin B was given daily for 3 days in concomitance with the infection, at a dose of 4000 microgram/kg, administered intraperitoneally. This dose would cure IA in cyclophosphamide-treated mice. Cyclophosphamide, 150 mg/kg administered intraperitoneally, was given a day before the infection. In cyclophosphamide-treated mice, 400 microgram/kg TA1 was given intraperitoneally for 5 consecutive days beginning the day of the infection.
C57BL6 mice were exposed to a lethal dose of 9 Gy and infused with T cell-depleted donor cells from BALB/c mice.

[2] = combined exposure to conidia and peptide

## Oc1ccc(-c2nc(-c3ccncc3)c(-c3ccc(F)cc3)[nH]2)cc1 [SB202190]
p38 and NF-kB; inhibitor given with TA1
  effect of inhibitor on the effect of TA1 on DCs: ablate the effect of TA1 on DCs

## Ac-Ala-Lys-Ser-Asp-Val-Lys-Ala-Glu-Thr-Ser-Ser-Glu-Ile-Asp-Thr-Thr-Glu-Leu-Asp-Glu-Lys-Val-Glu-Val-Lys-Ala-Asn-Glu-OH (Ac-AKSDVKAETSSEIDTTELDEKVEVKANE-OH) [scrambled peptide]
[1]
  HLA Class II antigens and costimulatory molecule expression: failed to up-regulate
  cytokine production by DCs: failed
Murine DCs; [2]
  expression of TLR2: failed to activate
  expression of TLR9: failed to activate
Murine DCs; peptide alone
  expression of TLR2: failed to activate
  expression of TLR9: failed to activate
p38 and NF-kB; peptide alone, 20 minutes
  p38 phosphorylation: not stimulated
p38 and NF-kB; scrambled peptide plus conidia
  p38 phosphorylation: not stimulated

B1: G-CSF: human recombinant G-CSF, known to accelerate neutrophil recovery in mice (protein, UniProt P09919 31-207, looked up)
Granulocyte …: TPLGPASSLPQSFLLKCLEQVRKIQGDGAALQEKLVSECATYKLCHPEELVLLGHSLGIPWAPLSSCPSQALQLAGCLSQLHSGLFLYQGLLQALEGISPELGPTLDTLQLDVADFATTIWQQMEELGMAPALQPTQGAMPAFASAFQRRAGGVLVASHLQSFLEVSYRVLRHLAQP
A. fumigatus
  antifungal resistance by recovery from neutropenia alone, compared with TA1: not sufficient
